We go through eight compounds from PubChem BioAssay (NCI).

Among the test systems are SNB-75 CNS; M14 melanoma; TK-10 renal; SK-MEL-28 melanoma; CCRF-CEM leukemia; SK-MEL-2 melanoma; A549 NSCLC; MDA-MB-231 breast; NCI-H23 lung; SK-MEL-5 melanoma.
Common to all, as to assay: NCI anticancer screen, dose series, 48 h

“And” between values parts separate entries of the source, which are not always exact repeats. Identical values can stand only once.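 1) Cells in 96-well plates. 2) Compound, 48 h, 5 concentrations. 3) Linear interpolation between surrounding doses. 4) Unreached endpoint = highest concentration. Here, GI50 denotes the concentration required for 50% inhibition of growth. TGI: total growth inhibition.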

With `COc1ccc(Cn2cc3c(c2)-c2oncc2CC3)cc1`, the GI50 was 2.95 µM with SNB-75 CNS; 3.12 µM with M14 melanoma; 8.76 µM in the assay with TK-10 renal; 4.08 µM in the assay on SK-MEL-28 melanoma; 2.87 µM with CCRF-CEM leukemia; 4.88 µM in the assay with SK-MEL-2 melanoma. For the same compound, the GI50 in the assay on A549 NSCLC was 7.26 µM; in the assay on MDA-MB-231 breast it was 9.47 µM; with NCI-H23 lung, 5.85 µM; with SK-MEL-5 melanoma, 3.21 µM. The TGI was 40.5 µM with SNB-75 CNS; 61.7 µM with M14 melanoma; 86.8 µM in the assay with TK-10 renal; > 52.8 µM in the assay with SK-MEL-28 melanoma; > 88.6 µM in the assay on CCRF-CEM leukemia; 22.3 µM in the assay with SK-MEL-2 melanoma. For the same compound, the TGI with A549 NSCLC is > 74.4 µM; in the assay on MDA-MB-231 breast it was > 100 µM; in the assay on NCI-H23 lung it was > 67.5 µM; with SK-MEL-5 melanoma, 12.6 µM.

As for `Cn1c2c(c3ccc(Cl)c(Cl)c31)C(C#N)C1(CCNCC1)NC2=O` (stereo not given), the GI50 is 1.14 µM in the assay on SNB-75 CNS; 1.54 µM with M14 melanoma; 1.23 µM in the assay with TK-10 renal; 0.841 µM in the assay with SK-MEL-28 melanoma; 1.93 µM in the assay with CCRF-CEM leukemia; 2.12 µM in the assay with SK-MEL-2 melanoma. Also, the GI50 with A549 NSCLC is 2.42 µM; in the assay with MDA-MB-231 breast, 1.54 µM; in the assay on NCI-H23 lung, 2.72 µM; with SK-MEL-5 melanoma, 1.5 µM. Further, the TGI is 4.72 µM in the assay on SNB-75 CNS; 3.3 µM in the assay on M14 melanoma; 3.46 µM with TK-10 renal; 2.37 µM in the assay on SK-MEL-28 melanoma; 4.72 µM in the assay on CCRF-CEM leukemia; 4.73 µM with SK-MEL-2 melanoma. Moreover, the TGI in the assay on A549 NSCLC turned out to be 7.89 µM; in the assay with MDA-MB-231 breast, 3.46 µM; in the assay on NCI-H23 lung it was 9.22 µM; in the assay with SK-MEL-5 melanoma, 2.91 µM.

For the compound `CC1C(=O)OCC2=CCN3CCC(OC(=O)C(C)C1(C)O)C23` (stereo not given), the TGI in the assay on SNB-75 CNS, in the assay with M14 melanoma, in the assay on TK-10 renal, in the assay with SK-MEL-28 melanoma, with CCRF-CEM leukemia and with SK-MEL-2 melanoma was > 100 µM throughout. The TGI with A549 NSCLC, in the assay on MDA-MB-231 breast, in the assay with NCI-H23 lung and in the assay with SK-MEL-5 melanoma was > 100 µM each time.

As for `O=c1cccc(C2CC(CO)C3CCCCN3C2)[nH]1` (stereo not given), the TGI in the assay with SNB-75 CNS, in the assay with M14 melanoma, in the assay with TK-10 renal, in the assay on SK-MEL-28 melanoma, in the assay on CCRF-CEM leukemia and with SK-MEL-2 melanoma was > 100 µM in each case. Also, the TGI in the assay on A549 NSCLC, in the assay on MDA-MB-231 breast, in the assay with NCI-H23 lung and with SK-MEL-5 melanoma was > 100 µM throughout.

`COc1ccccc1/C=C/C(=O)c1ccccc1`: the GI50 was 13.1 µM with SNB-75 CNS; 12.2 µM in the assay with M14 melanoma; 21.2 µM in the assay on TK-10 renal; 16.6 µM in the assay with SK-MEL-28 melanoma; 2.87 µM in the assay with CCRF-CEM leukemia; 12 µM in the assay on SK-MEL-2 melanoma. In addition, the GI50 with A549 NSCLC is 17.9 µM; in the assay on MDA-MB-231 breast, 14.4 µM; in the assay with NCI-H23 lung, 15.2 µM; in the assay with SK-MEL-5 melanoma, 12.7 µM. Further, the TGI in the assay on SNB-75 CNS was found to be 27.1 µM; in the assay with M14 melanoma, 27 µM; with TK-10 renal, 36.5 µM; in the assay on SK-MEL-28 melanoma, 30.8 µM; with CCRF-CEM leukemia, 11.5 µM; with SK-MEL-2 melanoma, 26.4 µM. The TGI with A549 NSCLC stood at 38.8 µM; in the assay with MDA-MB-231 breast, 35.2 µM; with NCI-H23 lung, 36.6 µM; with SK-MEL-5 melanoma, 25.7 µM.

Consider `COc1cc2ncnc(Nc3ccc(F)c(Cl)c3)c2cc1NC(=O)/C=C/CN1CCCCC1`, for which the GI50 is 1.03 µM and 1.25 µM with SNB-75 CNS; 1.72 µM and 1.61 µM with M14 melanoma; < 0.01 µM and 0.00151 µM with TK-10 renal; 1.79 µM and 1.65 µM with SK-MEL-28 melanoma; 1.01 µM and 2.03 µM in the assay on CCRF-CEM leukemia; 1.81 µM and 1.72 µM in the assay with SK-MEL-2 melanoma. Further, the GI50 is 1.27 µM and 1.65 µM in the assay on A549 NSCLC; 1.3 µM and 1.53 µM with MDA-MB-231 breast; 2.65 µM and 2.54 µM with NCI-H23 lung; 1.61 µM and 1.66 µM in the assay on SK-MEL-5 melanoma. For the same compound, the TGI in the assay with SNB-75 CNS is 6 µM and 6.47 µM; with M14 melanoma, 3.4 µM and 3.26 µM; in the assay on TK-10 renal it was 1.68 µM and 2.3 µM; in the assay with SK-MEL-28 melanoma, 3.36 µM and 3.14 µM; in the assay with CCRF-CEM leukemia it was 5.7 µM and 8 µM; in the assay with SK-MEL-2 melanoma it was 3.52 µM and 3.39 µM. The TGI in the assay on A549 NSCLC was 3.71 µM and > 8.03 µM; in the assay on MDA-MB-231 breast, 3.2 µM and 4 µM; in the assay on NCI-H23 lung, 7.81 µM and > 8.79 µM; with SK-MEL-5 melanoma, 3.13 µM and 3.06 µM.

For `CC(CCC(=O)O)C(=O)O` (stereo not given), the TGI with SNB-75 CNS, in the assay with M14 melanoma, in the assay on TK-10 renal, with SK-MEL-28 melanoma, with CCRF-CEM leukemia and with SK-MEL-2 melanoma was > 100 µM each time. Further, the TGI in the assay with A549 NSCLC, with MDA-MB-231 breast, in the assay with NCI-H23 lung and with SK-MEL-5 melanoma was > 100 µM in each case.

For the compound `CN1C(=O)N(C)C2C1NN=c1s/c(=C\c3ccc(F)cc3)c(=O)n12` (stereo not given), the GI50 was 1.05 µM with SNB-75 CNS; 2.24 µM with M14 melanoma; 6.06 µM with TK-10 renal; 7.31 µM in the assay on SK-MEL-28 melanoma; 1.91 µM with CCRF-CEM leukemia; 4.13 µM in the assay with SK-MEL-2 melanoma. Besides, the GI50 was 4.88 µM in the assay with A549 NSCLC, 4.69 µM in the assay with MDA-MB-231 breast, 4.23 µM with NCI-H23 lung and 0.995 µM in the assay on SK-MEL-5 melanoma. Also, the TGI in the assay with SNB-75 CNS is 5.22 µM; with M14 melanoma, > 100 µM; with TK-10 renal, > 100 µM; in the assay with SK-MEL-28 melanoma, > 100 µM; in the assay with CCRF-CEM leukemia it was > 100 µM; with SK-MEL-2 melanoma, > 100 µM. Besides, the TGI was > 100 µM in the assay on A549 NSCLC, > 100 µM with MDA-MB-231 breast, > 100 µM in the assay on NCI-H23 lung and 12 µM in the assay with SK-MEL-5 melanoma.
